System: MAPT 3R mRNA
Assay: RT-qPCR Assay to Quantify MAPT 3R mRNA in Cells
Assay type: cell-based
Parameters: key to EC2X: An EC2x value≥3000 nM is indicated by “inactive.”; An EC2x value between >1500 nM and ≤3000 nM is indicated by one star (*); An EC2x value between >1000 nM and ≤1500 nM is indicated by two stars (**); An EC2x value between >500 nM and ≤1000 nM is indicated by three stars (***); An EC2x value between >50 nM and ≤500 nM is indicated by four stars (****); An EC2x value≤50 nM is indicated by five stars (*****)
Conditions: cells incubated with compound 24 h; 7-point concentration curve; in house MAPT minigene 3R primer/probe with GAPDH assay; EC2x interpolated from dose response curve
Method: RT-qPCR Assay to Quantify MAPT 3R mRNA in Cells
Test compounds were serially diluted 3.16-fold in 100% DMSO to generate a 7-point concentration curve. Aliquots of 0.5 μL of diluted compounds were transferred to a 96-well flat bottom plate by a liquid handler. An aliquot of 0.5 μL DMSO was also transferred to separate wells and used as controls. Duplicate samples were set up for each compound concentration and for the DMSO control.
Cells were thawed and incubated in cell culture media (DMEM, 1 FBS, and No antibiotic cocktail) for 72 h. Cells were trypsinized, counted, and re-suspended to a concentration of 200,000 cells/mL in cell culture media. A 100 μL aliquot of the cell suspensions were plated at 20,000 cells per well in the compound containing 96 well microtiter plate and incubated for in a cell culture incubator (37° C., […], 100% relative humidity).
After 24 h, media was aspirated from the cells and 20 μL of the RCL2 lysis buffer (10 mM Tris-HCL pH 7.4, 150 mM NaCl, […]) was added to each well and incubated at RT for 1 mi. Chilled nuclease free water (140 μL per well) was added and the plates were immediately transferred on ice. After 1 min on ice, plates were frozen at −80° C. overnight.
Preparation of RT-PCR Reaction Mixture:
An aliquot of 4 μL/well of the cell lysates was transferred using the liquid handler to the Armadillo 384-Well PCR plate containing 6 μL/well of the RT-qPCR reaction mixture that was prepared as detailed above. The plates were then sealed with MicroAmp™ Optical Adhesive Film followed by spinning down for 1 min and placed in the CFX384 thermocycler (BioRad).
The RT-qPCR was carried out at the following temperatures for the indicated time: • Step 1: 48° C. (30 min) • Step 2: 95° C. (10 min) • Step 3: 95° C. (15 sec) • Step 4: 60° C. (1 min); then, repeated Steps 3 and 4 for a total of 40 cycles.
The percent exon 4 skipping was calculated for each dose of compound treatment using Equations 1 and 2.
Data were fit to a dose response curve and the EC2x was interpolated using XLfit® statistical and curve fitting package.
An EC2x value between >1000 nM and ≤1500 nM is indicated by two stars (**). An EC2x value between >500 nM and ≤1000 nM is indicated by three stars (***). An EC2x value between >50 nM and ≤500 nM is indicated by four stars (****). An EC2x value≤50 nM is indicated by five stars (*****).

| Structure (SMILES) | EC (2-fold) | EC2X |
| --- | --- | --- |
| Cc1c(C[C@H](C)N)sc2c(NCc3ccc(F)s3)nc(Cl)nc12 [Cpd 33, 6-[(2S)-2-aminopropyl]-2-chloro-N-[(5-fluorothiophen-2-yl)methyl]-7-methylthieno[3,2-d]pyrimidin-4-amine] | 0.05 to 0.5 µM |  |
| Cc1c(C[C@H](C)N)sc2c(NCc3nccs3)nc(Cl)nc12 [Cpd 29, 6-[(2S)-2-aminopropyl]-2-chloro-7-methyl-N-[(1,3-thiazol-2-yl)methyl]thieno[3,2-d]pyrimidin-4-amine] | ≤ 0.05 µM |  |
| Cc1c(C[C@H](C)N)sc2c(NCc3sccc3F)nc(Cl)nc12 [Cpd 90, 6-[(2S)-2-aminopropyl]-2-chloro-N-[(3-fluorothiophen-2-yl)methyl]-7-methylthieno[3,2-d]pyrimidin-4-amine] | 0.05 to 0.5 µM |  |
| Cc1c(C[C@@H](N)CO)sc2c(NCc3cccs3)nc(Cl)nc12 [Cpd 56, (2R)-2-amino-3-(2-chloro-7-methyl-4-{[(thiophen-2-yl)methyl]amino}thieno[3,2-d]pyrimidin-6-yl)propan-1-ol] | ≤ 0.05 µM |  |
| Cc1c(C[C@H](C)N)sc2c(NCc3nc(F)cs3)nc(Cl)nc12 [Cpd 92, 6-[(2S)-2-aminopropyl]-2-chloro-N-[(4-fluoro-1,3-thiazol-2-yl)methyl]-7-methylthieno[3,2-d]pyrimidin-4-amine] | 0.05 to 0.5 µM |  |
| C[C@H](N)Cc1sc2c(NCc3cccs3)nc(Cl)nc2c1Br [Cpd 82, 6-[(2S)-2-aminopropyl]-7-bromo-2-chloro-N-[(thiophen-2-yl)methyl]thieno[3,2-d]pyrimidin-4-amine] | ≤ 0.05 µM |  |
| Cc1c(C[C@@H](N)CCO)sc2c(NCc3ccco3)nc(Cl)nc12 [Cpd 97, (3S)-3-amino-4-(2-chloro-4-{[(furan-2-yl)methyl]amino}-7-methylthieno[3,2-d]pyrimidin-6-yl)butan-1-ol] | ≤ 0.05 µM |  |
| Cc1ccc(CNc2nc(Cl)nc3c(C)c(C[C@H](C)N)sc23)o1 [Cpd 24, 6-[(2S)-2-aminopropyl]-2-chloro-7-methyl-N-[(5-methylfuran-2-yl)methyl]thieno[3,2-d]pyrimidin-4-amine] | 0.05 to 0.5 µM |  |
| Cc1c(C[C@H](C)N)sc2c(NCc3cccs3)nc(Cl)nc12 [Cpd 28, 6-[(2S)-2-aminopropyl]-2-chloro-7-methyl-N-[(thiophen-2-yl)methyl]thieno[3,2-d]pyrimidin-4-amine] | ≤ 0.05 µM |  |
| Cc1c(C[C@H](C)NC2CCC2)sc2c(NCc3ccco3)nc(Cl)nc12 [Cpd 78, 2-chloro-6-[(2S)-2-(cyclobutylamino)propyl]-N-[(furan-2-yl)methyl]-7-methylthieno[3,2-d]pyrimidin-4-amine] | 1.5 to 3 µM |  |
| Cc1c(C[C@H](C)N)sc2c(NCc3ncccc3F)nc(Cl)nc12 [Cpd 59, 6-[(2S)-2-aminopropyl]-2-chloro-N-[(3-fluoropyridin-2-yl)methyl]-7-methylthieno[3,2-d]pyrimidin-4-amine] | 0.5 to 1 µM |  |
| Cc1c(C[C@H](C)N)sc2c(NCc3cncs3)nc(Cl)nc12 [Cpd 74, 6-[(2S)-2-aminopropyl]-2-chloro-7-methyl-N-[(1,3-thiazol-5-yl)methyl]thieno[3,2-d]pyrimidin-4-amine] | ≤ 0.05 µM |  |
| CC[C@H](N)Cc1sc2c(NCc3ccns3)nc(Cl)nc2c1C [Cpd 62, 6-[(2S)-2-aminobutyl]-2-chloro-7-methyl-N-[(1,2-thiazol-5-yl)methyl]thieno[3,2-d]pyrimidin-4-amine] | 0.05 to 0.5 µM |  |
| Cc1c(C[C@H](C)N)sc2c(NCc3ccco3)nc(Br)nc12 [Cpd 38, 6-[(2S)-2-aminopropyl]-2-bromo-N-[(furan-2-yl)methyl]-7-methylthieno[3,2-d]pyrimidin-4-amine] | 0.5 to 1 µM |  |
| Cc1nc(NCc2ccco2)c2sc(C[C@H](C)N)c(C)c2n1 [Cpd 15, 6-[(2S)-2-aminopropyl]-N-[(furan-2-yl)methyl]-2,7-dimethylthieno[3,2-d]pyrimidin-4-amine] | 0.05 to 0.5 µM |  |
| Cc1c(C[C@@H](N)CCF)sc2c(NCc3ccco3)nc(Cl)nc12 [Cpd 51, 6-[(2S)-2-amino-4-fluorobutyl]-2-chloro-N-[(furan-2-yl)methyl]-7-methylthieno[3,2-d]pyrimidin-4-amine] | ≤ 0.05 µM |  |
| Cc1c(C[C@H](C)N)sc2c(NCc3c(F)cncc3F)nc(Cl)nc12 [Cpd 64, 6-[(2S)-2-aminopropyl]-2-chloro-N-[(3,5-difluoropyridin-4-yl)methyl]-7-methylthieno[3,2-d]pyrimidin-4-amine] |  | inactive |
| CC(C)[C@H](N)Cc1cc2nc(Cl)nc(NCc3ccco3)c2s1 [Cpd 5, 6-[(2R)-2-amino-3-methylbutyl]-2-chloro-N-[(furan-2-yl)methyl]thieno[3,2-d]pyrimidin-4-amine] | 0.05 to 0.5 µM |  |
| Cc1csc2c(NCc3ccncc3)nc(Cl)nc12 [Cpd 23, 2-chloro-7-methyl-N-[(pyridin-4-yl)methyl]thieno[3,2-d]pyrimidin-4-amine] | 0.05 to 0.5 µM |  |
| Cc1cnc(CNc2nc(Cl)nc3c(C)c(C[C@H](C)N)sc23)s1 [Cpd 31, 6-[(2S)-2-aminopropyl]-2-chloro-7-methyl-N-[(5-methyl-1,3-thiazol-2-yl)methyl]thieno[3,2-d]pyrimidin-4-amine] | 1.5 to 3 µM |  |
| Cc1c(C[C@H](C)N)sc2c(NCc3cccnc3F)nc(Cl)nc12 [Cpd 60, 6-[(2S)-2-aminopropyl]-2-chloro-N-[(2-fluoropyridin-3-yl)methyl]-7-methylthieno[3,2-d]pyrimidin-4-amine] | 1.5 to 3 µM |  |
| Cc1c(C[C@@H](C)CN)sc2c(NCc3ccco3)nc(Cl)nc12 [Cpd 72, 6-[(2R)-3-amino-2-methylpropyl]-2-chloro-N-[(furan-2-yl)methyl]-7-methylthieno[3,2-d]pyrimidin-4-amine] | 1.5 to 3 µM |  |
| C[C@H](N)Cc1sc2c(NCc3cccs3)nc(Cl)nc2c1C1CC1 [Cpd 86, 6-[(2S)-2-aminopropyl]-2-chloro-7-cyclopropyl-N-[(thiophen-2-yl)methyl]thieno[3,2-d]pyrimidin-4-amine] | 0.05 to 0.5 µM |  |
| Cc1c(C[C@H](C)N)sc2c(NCc3ncc(F)s3)nc(Cl)nc12 [Cpd 93, 6-[(2S)-2-aminopropyl]-2-chloro-N-[(5-fluoro-1,3-thiazol-2-yl)methyl]-7-methylthieno[3,2-d]pyrimidin-4-amine] | 0.05 to 0.5 µM |  |
| Cc1c(C[C@H](C)N)sc2c(NCc3cnco3)nc(Cl)nc12 [Cpd 75, 6-[(2S)-2-aminopropyl]-2-chloro-7-methyl-N-[(1,3-oxazol-5-yl)methyl]thieno[3,2-d]pyrimidin-4-amine] | 0.5 to 1 µM |  |
| CCc1c(C[C@H](C)N)sc2c(NCc3ccco3)nc(Cl)nc12 [Cpd 77, 6-[(2S)-2-aminopropyl]-2-chloro-7-ethyl-N-[(furan-2-yl)methyl]thieno[3,2-d]pyrimidin-4-amine] | 0.05 to 0.5 µM |  |
| Cc1c(C[C@H](C)N)sc2c(NCc3ccco3)nc(Cl)nc12 [Cpd 12, 6-[(2S)-2-aminopropyl]-2-chloro-N-[(furan-2-yl)methyl]-7-methylthieno[3,2-d]pyrimidin-4-amine] | ≤ 0.05 µM |  |
| Cc1c(C[C@H](C)N)sc2c(NCc3ccno3)nc(Cl)nc12 [Cpd 39, 6-[(2S)-2-aminopropyl]-2-chloro-7-methyl-N-[(1,2-oxazol-5-yl)methyl]thieno[3,2-d]pyrimidin-4-amine] | 0.05 to 0.5 µM |  |
